Assay results from patent US12138322B2, “Method of preventing the development of melanoma” (Vector Vitale IP LLC, priority 2019, dated 2024).
“And” between values parts separate entries of the source, which are not always exact repeats. Equal values may be shown once. “Also recorded” adds a separate entry of the source. Marks after values point to notes of the source that are not given here.

System: B16 melanoma
Assay: B16 melanoma tumor growth and survival in mice, intratumoral administration
Type: in vivo, C57Bl/J6 mice
Design: key to presence or absence of tumor, individual animals: Tumor−: absence of tumor growth; Tumor+: presence of tumor; key to tumor volume, individual animals: tumor volume in mm^3, ellipsoid V = 4/3×π×a×b×c from radii
Conditions: for size of melanoma reduced compared to control: drug administered on the 11th day after inoculation; for tumor volume, individual animals: group 2, individual regimens
Experimental: B16 melanoma cells having the following characteristic were used in the experiment: • Origin: Mus musculus skin (C57BL/6 mouse) • Characteristics of tumor growth: short incubation period, rapid growth, absence of spontaneous metastases. • Tumor inoculability is 100%. The minimum dose of cells that causes tumor growth for this melanoma is only 100 to 1000 per subcutaneous injection in the mouse.
15 female C57Bl/J6 mice (5 mice per group) at the age of 10-12 weeks, weighing 18-22 g were used in the experiment.
B16 melanoma cells were cultured in vitro under standard conditions. For transplantation, tumor cells in the exponential phase were removed from the substrate with 0.02% Versene solution and the suspension cellularity and viability was evaluated in the presence of trypan blue in a hemocytometer and the suspension was adjusted to a concentration of 10^7 cells/ml by dilution with saline solution. Melanoma cells were injected intracutaneously (i.e.) in 0.05 ml of the suspension (0.5×10^6 cells/mouse) into the animal's back region. 24 hours before the injection of tumor cells, the wool cover on the back of each mouse was removed with depilation cream.
Grouping. The animals were divided into groups as follows: • Group No. 1: control group, mice injected i.e. with B16 melanoma cells; • Group No. 2: mice injected i.e. with B16 melanoma cells+intratumoral injections of ^64Zne(Asp)2 at day 5 after the tumor cells were inoculated. • Group No. 3: mice injected i.e. with B16 melanoma cells+intratumoral injections of ^64Zne(Asp)2 at day 11 after the tumor cells were inoculated
The composition to be administered was prepared immediately prior to its administration. ^64Zne(Asp)2 was dissolved in deuterium-depleted water with addition of 1% DMSO. Animals in group No. 2 were injected with the composition comprising ^64Zne(Asp)2 intratumorally and around the area of tumor growth at a dose of 200 μg/mouse in a volume of 20 μl/mouse after the tumor reached 0.5 cm in diameter (at day 5 after i.e. administration of the tumor cells).
Animals in group No. 3 were injected with the composition comprising ^64Zne(Asp)2 intratumorally and around the area of tumor growth at a dose of 300 μg/mouse in a volume of 30 μl/mouse at day 11 after i.e. administration of the tumor cells. […] 24 hours after the first injection and then a series of injections were given every other day. ^64Zne(Asp)2 was administered intratumorally every other day for 10 days, 5 times in total.
Regarding the 3rd group: group 3 mice received 300 mcg/mouse of ^64Zne in the form of ^4Zne aspartate on the 11th day and 200 mcg/mouse of ^4Zne aspartate on the 13th, 15th, 17th and 19th days after tumor cell injection.
The anti-tumor efficacy of ^64Zne(Asp)2 was evaluated on the basis of the growth dynamics of melanoma tumors estimated based on the changes in tumor volume according to generally accepted rules.
From the time the experimental tumors reached 0.3-0.5 cm in diameter and every 2-3 days thereafter, the size of each tumor node in experimental animals was measured in three orthogonal planes (width×length×height (W×L×H)) and the tumor volume was calculated by use of the following formula for the volume of ellipsoid: V= 4/3×πabc; where V is the tumor volume (mm^3); a, b, c is the rumor radius (mm): a is the radius along the x axis, b is the radius along the y axis, c is the radius along the z axis.

SMILES: N[C@@H](CC(=O)[O-])C(=O)[O-].[Zn+2] [^64Zne(Asp)2, Zinc L-aspartate]
- size of melanoma reduced compared to control (21st day): 85%
- size of melanoma reduced compared to control (24th day): 75.6%
- tumor volume, individual animals (4 day after tumor cell inoculation (before 1st injection)): 14.1 and 33.5 and 24.4 (2×) and 25
- tumor volume, individual animals (6 day): 14.1 (3×) and 33.5 and 65.4
- tumor volume, individual animals (10 day): 24.4 (2×) and 14 (2×) and 51
- tumor volume, individual animals (12 day): 24.4 and 14 (3×) and 116.4
- local finding at tumor site, individual animal (13 day, group 2): Eschar
- presence or absence of tumor, individual animals (13 day, group 2): Tumor +/
- tumor volume, individual animals (14 day): 14 (2×) and 4.2 and 38.4 and 9.2
- tumor volume, individual animals (17 day): 4.2 (3×) and 65.4 and 14
- presence or absence of tumor, individual animals (18 day, group 2): Tumor +/
- tumor volume, individual animals (21 day): 0 (3×) and 179.6 and 33.5
- presence or absence of tumor, individual animals (22 day, group 2): Tumor +/
- tumor volume, individual animals (24 day): 25.4 and 0 (2×) and 282.7 and 33.5
- Tumor necrosis, individual animal (25 day, group 2): necrosis
- presence or absence of tumor, individual animals (25 day, group 2): Tumor +/
- death of individual animal (28 day, group 2): Died*
- presence or absence of tumor, individual animals (28 day, group 2): Tumor−; also recorded: Tumor +/
- tumor volume, individual animals (28 day): 33.2 and 0 (2×) and 641 and 102.6
- presence or absence of tumor, individual animals (36 day, group 2): Tumor +/; also recorded: Tumor−
- Tumor necrosis, individual animal (39 day, group 2): necrosis
- presence or absence of tumor, individual animals (39 day, group 2): Tumor+; also recorded: Tumor−; also recorded: Tumor +/
- death of individual animal (43 day, group 2): Died*
- presence or absence of tumor, individual animals (43 day, group 2): Tumor+; also recorded: Tumor−
- presence or absence of tumor, individual animals (55 day, group 2): Tumor−
- Tumor necrosis, individual animal (58 day, group 2): necrosis
- presence or absence of tumor, individual animals (58 day, group 2): Tumor +/; also recorded: Tumor−
- death of individual animal (61 day, group 2): Died*
- presence or absence of tumor, individual animals (61 day, group 2): Tumor−
- Tumor volume (M ± m) (day 4 after inoculation (before first injection), group 2: intratumoral 200 μg/mouse at day 5): 24.3 mm^3
- Tumor volume (M ± m) (day 4 after inoculation (before first injection), group 3: intratumoral 300 μg/mouse at day 11, then 200 μg/mouse): 27 mm^3
- Number of alive mice (day 4 after inoculation, group 2: intratumoral at day 5, 5 animals per group): 100%
- Number of alive mice (day 4 after inoculation, group 3: intratumoral at day 11, 5 animals per group): 100%
- Number of alive mice (day 6, group 2: intratumoral at day 5): 100%
- Number of alive mice (day 6, group 3: intratumoral at day 11): 100%
- Tumor volume (M ± m) (day 6 after inoculation (before first injection), group 3: intratumoral 300 μg/mouse at day 11, then 200 μg/mouse): 63 mm^3
- Tumor volume (M ± m) (day 6 after inoculation, group 2: intratumoral 200 μg/mouse at day 5): 28.2 mm^3
- Number of alive mice (day 9, group 2: intratumoral at day 5): 100%
- Number of alive mice (day 9, group 3: intratumoral at day 11): 100%
- Tumor volume (M ± m) (day 9 after inoculation (before first injection), group 3: intratumoral 300 μg/mouse at day 11, then 200 μg/mouse): 119 mm^3
- Tumor volume (M ± m) (day 9 after inoculation, group 2: intratumoral 200 μg/mouse at day 5): 25.6 mm^3
- Number of alive mice (day 12, group 2: intratumoral at day 5): 100%
- Number of alive mice (day 12, group 3: intratumoral at day 11): 80^+ %
- Tumor volume (M ± m) (day 12 after inoculation, group 2: intratumoral 200 μg/mouse at day 5): 36.6 mm^3
- Tumor volume (M ± m) (day 12 after inoculation, group 3: intratumoral 300 μg/mouse at day 11, then 200 μg/mouse): 260 ± 20 mm^3
- Number of alive mice (day 14, group 2: intratumoral at day 5): 100%
- Number of alive mice (day 14, group 3: intratumoral at day 11): 80%
- Tumor volume (M ± m) (day 14 after inoculation, group 2: intratumoral 200 μg/mouse at day 5): 16 ± 6^d mm^3
- Tumor volume (M ± m) (day 14 after inoculation, group 3: intratumoral 300 μg/mouse at day 11, then 200 μg/mouse): 184 ± 51 mm^3
- Number of alive mice (day 17, group 2: intratumoral at day 5): 100%
- Number of alive mice (day 17, group 3: intratumoral at day 11): 80%
- Tumor volume (M ± m) (day 17 after inoculation, group 2: intratumoral 200 μg/mouse at day 5): 18.4 mm^3
- Tumor volume (M ± m) (day 17 after inoculation, group 3: intratumoral 300 μg/mouse at day 11, then 200 μg/mouse): 250 mm^3
- Number of alive mice (day 21, group 2: intratumoral at day 5): 100%
- Number of alive mice (day 21, group 3: intratumoral at day 11): 80%
- Tumor volume (M ± m) (day 21 after inoculation, group 2: intratumoral 200 μg/mouse at day 5): 42.6 mm^3
- Tumor volume (M ± m) (day 21 after inoculation, group 3: intratumoral 300 μg/mouse at day 11, then 200 μg/mouse): 375.4 mm^3
- Number of alive mice (day 24, group 2: intratumoral at day 5): 100%
- Number of alive mice (day 24, group 3: intratumoral at day 11): 60* %
- Tumor volume (M ± m) (day 24 after inoculation, group 2: intratumoral 200 μg/mouse at day 5): 68.3 mm^3
- Tumor volume (M ± m) (day 24 after inoculation, group 3: intratumoral 300 μg/mouse at day 11, then 200 μg/mouse): 881 mm^3
- Number of alive mice (day 27, group 2: intratumoral at day 5): 100%
- Number of alive mice (day 27, group 3: intratumoral at day 11): 60%
- Tumor volume (M ± m) (day 27 after inoculation, group 2: intratumoral 200 μg/mouse at day 5): 155.4 mm^3
- Tumor volume (M ± m) (day 27 after inoculation, group 3: intratumoral 300 μg/mouse at day 11, then 200 μg/mouse): 2313.5 mm^3
- Number of alive mice (day 28, group 2: intratumoral at day 5): 80* %
- Number of alive mice (day 28, group 3: intratumoral at day 11): 40%
- Number of alive mice (day 31, group 2: intratumoral at day 5): 80%
- Number of alive mice (day 31, group 3: intratumoral at day 11): 40%
- animals in which growth of melanoma was suppressed by 100% (group No. 2, after a single intratumoral injection at day 5): 2 out of 5
- tumor volume as % of the corresponding figure in the control group (intratumoral on the 5th day after inoculation, day of reading not given): 4%
